# From US7700609B2, “Compositions useful as inhibitors of protein kinases” (Vertex Pharmaceuticals Incorporated, priority 2003, dated 2010)
# How the values were obtained:
# [1] = target: T1, Itk (Homo sapiens, UniProt Q08881); test: Itk inhibition assay: Alphascreen (Method B); format: biochemical; settings: 100 μM ATP
# T1 sequence (Q08881 1-620): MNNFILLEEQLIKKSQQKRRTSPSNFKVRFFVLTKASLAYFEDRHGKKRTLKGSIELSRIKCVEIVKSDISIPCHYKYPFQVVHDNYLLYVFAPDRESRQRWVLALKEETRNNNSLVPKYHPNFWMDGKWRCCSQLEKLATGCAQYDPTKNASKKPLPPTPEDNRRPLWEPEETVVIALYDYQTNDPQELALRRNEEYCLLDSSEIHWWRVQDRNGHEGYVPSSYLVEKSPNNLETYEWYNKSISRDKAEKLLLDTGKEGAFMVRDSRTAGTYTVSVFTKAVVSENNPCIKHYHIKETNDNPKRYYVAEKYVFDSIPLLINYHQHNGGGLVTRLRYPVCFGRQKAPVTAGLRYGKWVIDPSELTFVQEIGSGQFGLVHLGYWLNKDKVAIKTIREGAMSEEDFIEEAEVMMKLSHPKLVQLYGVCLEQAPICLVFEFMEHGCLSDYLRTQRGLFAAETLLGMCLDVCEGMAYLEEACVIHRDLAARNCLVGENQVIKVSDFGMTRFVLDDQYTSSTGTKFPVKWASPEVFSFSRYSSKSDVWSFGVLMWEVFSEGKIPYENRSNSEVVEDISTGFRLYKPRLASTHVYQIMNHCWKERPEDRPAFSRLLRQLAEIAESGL
# Protocol: (§1) The compounds of the present invention were evaluated as inhibitors of human Itk kinase using either a radioactivity-based, spectrophotometric or alphascreen assay.
# Assays were carried out in a mixture of 20 mM MOPS (pH 7.0), 10 mM MgCl2, 0.1% BSA and 1 mM DTT. Final substrate concentrations in the assay were 100 μM ATP (Sigma Chemicals) and 2 μM peptide (Biotinylated SAM68 Δ332-443). Assays were carried out at 25° C. and in the presence of 10 nM Itk. An assay stock buffer solution was prepared containing all of the reagents listed above, with the exception of ATP and the test compound of interest. 25 μL of the stock solution was placed in each well of a 96 well plate followed by 1 μL of DMSO containing serial dilutions of the test compound (typically starting from a final concentration of 15 μM) in duplicate (final DMSO concentration 2%). The plate was preincubated for 10 minutes at 25° C. and the reaction initiated by addition of 25 μL ATP (final concentration 100 μM). Background counts were determined by the addition of 5 μL 500 mM EDTA to control wells containing assay stock buffer and DMSO prior to initiation with ATP. The reaction was stopped after 30 minutes by diluting the reaction 225-fold into MOPS buffer (20 mM MOPS (pH 7.0), 1 mM DTT, 10 mM MgCl2, 0.1% BSA) containing 50 mM EDTA to bring the final concentration of peptide to 9 nM.
# AlphaScreen™ reagents were prepared according to the manufacturers instructions (AlphaScreen™ phosphotyrosine (P-Tyr-100) assay kit, PerkinElmer catalogue number 6760620C). Under subdued lighting, 20 μL of AlphaScreen™ reagents were placed in each well of a white half area 96 well plate (Corning Inc.—COSTAR 3693) with 30 μL of the stopped, diluted kinase reactions. Plates were incubated in the dark for 60 minutes prior to reading on a Fusion Alpha plate reader (PerkinElmer).
# After removing mean background values for all of the data points, Ki(app) data were calculated from non-linear regression analysis using the Prism software package (GraphPad Prism version 3.0cx for Macintosh, GraphPad Software, San Diego Calif., USA).
# [2] = target: T1, Itk; test: Itk inhibition assay: spectrophotometric coupled enzyme (Method C); format: biochemical; settings: 100 μM ATP, read-out: Ki in the standard coupled enzyme assay (Method C)
# Protocol: as §1
# Compounds were screened for their ability to inhibit Itk using a standard coupled enzyme assay (Fox et al., Protein Sci., (1998) 7, 2249).
# Assays were carried out in a mixture of 20 mM MOPS (pH 7.0), 10 mM MgCl2, 0.1% BSA, 1 mM DTT, 2.5 mM phosphoenolpyruvate, 300 μM NADH, 30 μg/ml pyruvate kinase and 10 μg/ml lactate dehydrogenase. Final substrate concentrations in the assay were 100 μM ATP (Sigma Chemicals) and 3 μM peptide (Biotinylated SAM68 Δ332-443). Assays were carried out at 25° C. and in the presence of 10 nM Itk.
# An assay stock buffer solution was prepared containing all of the reagents listed above, with the exception of ATP and the test compound of interest. 60 μl of the stock solution was placed in a 96 well plate followed by addition of 2 μl of DMSO stock containing serial dilutions of the test compound (typically starting from a final concentration of 15 μM). The plate was preincubated for 10 minutes at 25° C. and the reaction initiated by addition of 5 μl of ATP. Initial reaction rates were determined with a Molecular Devices SpectraMax Plus plate reader over a 10 minute time course. IC50 and Ki data were calculated from non-linear regression analysis using the Prism software package (GraphPad Prism version 3.0cx for Macintosh, GraphPad Software, San Diego Calif., USA).
SMILES,Ki [1] [nM],Ki [2] [nM]
CC1(C)Cc2cnc(Nc3cccc(S(N)(=O)=O)c3)nc2-c2ccsc21 [Compound I-41],< 1000,
NS(=O)(=O)c1cccc(Nc2ncc3ccc4sc(C(=O)N5CCOCC5)cc4c3n2)c1 [Compound V-37],< 1000,
COc1cccc(-c2cc3c(s2)CCc2cnc(Nc4cccc(NC(C)=O)c4)nc2-3)c1 [Compound I-36],< 1000,
CN(C)CCNC(=O)c1cc2c(ccc3cnc(Nc4cccc(S(N)(=O)=O)c4)nc32)s1 [Compound V-42],< 1000,
CC(C)(C)OC(=O)NC1CCN(C(=O)c2cc3c(ccc4cnc(Nc5cccc(S(N)(=O)=O)c5)nc43)s2)CC1 [Compound V-46],< 1000,
NC1CCN(C(=O)c2cc3c(ccc4cnc(Nc5cccc(S(N)(=O)=O)c5)nc43)s2)CC1 [Compound V-48],< 1000,
NC1CCN(C(=O)c2cc3c(ccc4cnc(Nc5cccc(S(N)(=O)=O)c5)nc43)s2)C1 (centres unmarked) [Compound V-49],< 1000,
CC(C)(C)OC(=O)NC1CCN(C(=O)c2cc3c(ccc4cnc(Nc5cccc(S(N)(=O)=O)c5)nc43)s2)C1 (centres unmarked) [Compound V-47],< 1000,
O=C(c1cc2c(ccc3cnc(Nc4ccccc4)nc32)s1)N1CCOCC1 [Compound V-52],< 1000,
CNCCNC(=O)c1cc2c(ccc3cnc(Nc4cccc(S(N)(=O)=O)c4)nc32)s1 [Compound V-43],< 1000,
NC1CCN(C(=O)c2cc3c(ccc4cnc(Nc5ccccc5)nc43)s2)C1 (centres unmarked) [Compound V-54],< 1000,
NS(=O)(=O)c1cccc(Nc2ncc3ccc4sc(C(=O)N5CCCCC5)cc4c3n2)c1 [Compound V-36],< 1000,
CN1CCN(C(=O)c2cc3c(ccc4cnc(Nc5ccccc5)nc43)s2)CC1 [Compound V-50],< 1000,
Nc1cccc(Nc2ncc3ccc4sc(C(=O)N5CCOCC5)cc4c3n2)c1 [Compound V-51],< 1000,
CC(C)(C)OC(=O)NCCCNC(=O)c1cc2c(ccc3cnc(Nc4cccc(S(N)(=O)=O)c4)nc32)s1 [Compound V-39],< 1000,
NCCCNC(=O)c1cc2c(ccc3cnc(Nc4cccc(S(N)(=O)=O)c4)nc32)s1 [Compound V-45],< 1000,
CN1CCN(C(=O)c2cc3c(ccc4cnc(Nc5cccc(S(N)(=O)=O)c5)nc43)s2)CC1 [Compound V-40],< 1000,
NS(=O)(=O)c1cccc(Nc2ncc3ccc4sc(C(=O)N5CCNCC5)cc4c3n2)c1 [Compound V-4],< 1000,
O=C(c1cc2c(ccc3cnc(Nc4cccc(Oc5ccccc5)c4)nc32)s1)N1CCNCC1 [Compound V-84],,< 1000
NC1CCN(C(=O)c2cc3c(ccc4cnc(Nc5cccc(F)c5)nc43)s2)C1 (centres unmarked) [Compound V-74],,< 1000
O=C(c1cc2c(ccc3cnc(Nc4cccc(F)c4)nc32)s1)N1CCOCC1 [Compound V-61],,< 1000
CC(C)c1cccc(Nc2ncc3ccc4sc(C(=O)N5CCNCC5)cc4c3n2)c1 [Compound V-81],,< 1000
CN1CCN(C(=O)c2cc3c(ccc4cnc(Nc5cccc(Oc6ccccc6)c5)nc43)s2)CC1 [Compound V-83],,< 1000

# The remaining lines, values ahead:
Ki [1] [nM],Ki [2] [nM],SMILES
< 1000,,Cc1nc2c(s1)-c1nc(Nc3cccc(S(N)(=O)=O)c3)ncc1CC2 [III-4]
< 1000,,CCN(CC)c1nc2c(s1)-c1nc(Nc3cccc(S(N)(=O)=O)c3)ncc1CC2 [III-33]
< 1000,,CCN(CC)c1nc2ccc3cnc(Nc4cccc(S(N)(=O)=O)c4)nc3c2s1 [II-38]
< 1000,,NS(=O)(=O)c1cccc(Nc2ncc3ccc4nc(C(=O)N5CCNCC5)sc4c3n2)c1 [II-13]
< 1000,,NS(=O)(=O)c1cccc(Nc2ncc3c(n2)-c2sc(N4CCOCC4)nc2CC3)c1 [III-32]
< 1000,,CN1CCC(Nc2nc3c(s2)-c2nc(Nc4cccc(S(N)(=O)=O)c4)ncc2CC3)CC1 [III-35]
< 1000,,CN(C)/C=N/S(=O)(=O)c1cccc(Nc2ncc3c(n2)-c2sc(N4CCN(C)CC4)nc2CC3)c1 [III-40]
< 1000,,NS(=O)(=O)c1cccc(Nc2ncc3c(n2)-c2sc(N4CCCCC4)nc2CC3)c1 [III-34]
< 1000,,Nc1cccc(Nc2ncc3ccc4sccc4c3n2)c1 [II-34]
< 1000,,Cc1nc2c(s1)CCc1cnc(Nc3cccc(S(N)(=O)=O)c3)nc1-2 [IV-4]
< 1000,,NS(=O)(=O)c1cccc(Nc2ncc3ccc4nc(N5CCOCC5)sc4c3n2)c1 [II-37]
< 1000,,NS(=O)(=O)c1cccc(Nc2ncc3ccc4nc(N5CCCCC5)sc4c3n2)c1 [II-39]
,< 1000,NS(=O)(=O)c1cccc(Nc2ncc3ccc4nc(C(=O)N5CCNCC5)sc4c3n2)c1 [Compound V-177]
< 1000,,Cc1nc2ccc3cnc(Nc4cccc(S(N)(=O)=O)c4)nc3c2s1 [II-35]
< 1000,,CC(C)(C)C(=O)OCc1nc2c(s1)-c1nc(Nc3cccc(S(N)(=O)=O)c3)ncc1CC2 [III-31]
,< 1000,CN1CCN(C(=O)c2ccc(Nc3ncc4ccc5sc(C(=O)N6CCNCC6)cc5c4n3)cc2)CC1 [Compound V-122]
,< 1000,O=C(c1cc2c(ccc3cnc(Nc4cccc(-c5cccnc5)c4)nc32)s1)N1CCNCC1 [Compound V-94]
,< 1000,O=C(c1cc2c(ccc3cnc(Nc4cccc(-c5ccsc5Cl)c4)nc32)s1)N1CCNCC1 [Compound V-97]
,< 1000,CN1CCN(c2cccc(Nc3ncc4ccc5sc(C(=O)N6CCNCC6)cc5c4n3)c2)CC1 [Compound V-114]
,< 1000,CCN(CCN(C)C)C(=O)c1cc2c(ccc3cnc(Nc4cccc(S(C)(=O)=O)c4)nc32)s1 [Compound V-157]
,< 1000,CN1CCN(C(=O)c2cc3c(ccc4cnc(Nc5cccc(Cc6ccccc6)c5)nc43)s2)CC1 [Compound V-86]
,< 1000,COC[C@H](C)NC(=O)c1cc2c(ccc3cnc(Nc4cccc(S(C)(=O)=O)c4)nc32)s1 [Compound V-153]
,< 1000,CS(=O)(=O)c1cccc(Nc2ncc3ccc4sc(C(=O)N5CCC(C(N)=O)CC5)cc4c3n2)c1 [Compound V-144]
,< 1000,O=C(c1cc2c(ccc3cnc(NCCc4ccccn4)nc32)s1)N1CCNCC1 [Compound V-179]
,< 1000,CS(=O)(=O)c1cccc(Nc2ncc3ccc4sc(C(=O)N5CCCC5)cc4c3n2)c1 [Compound V-130]
,< 1000,CC(=O)N1CCc2ccc(Nc3ncc4ccc5sc(C(=O)N6CCNCC6)cc5c4n3)cc21 [Compound V-166]
,< 1000,CS(=O)(=O)c1cccc(Nc2ncc3ccc4sc(C(=O)NC5CCC(O)CC5)cc4c3n2)c1 (centres unmarked) [Compound V-151]
,< 1000,CC(C)(C)c1cccc(Nc2ncc3ccc4sc(C(=O)N5CC[C@@H](N)C5)cc4c3n2)c1 [Compound V-111]
,< 1000,CC(=O)N1CCCN(C(=O)c2cc3c(ccc4cnc(Nc5cccc(C(C)(C)C)c5)nc43)s2)CC1 [Compound V-106]
,< 1000,CS(=O)(=O)c1cccc(Nc2ncc3ccc4sc(C(=O)NCCN5CCNC5=O)cc4c3n2)c1 [Compound V-145]
